Results from patent US10092570B2 (Incyte Corporation, priority 2011, dated 2018).
One block for each molecule: values may come before it.

Tests used:
PI3K isoform δ = PI3K isoform δ (Homo sapiens (Human), UniProt O00329); test: Example A2: PI3K enzyme assay ([γ-33P]ATP filter plate), PI3Kδ; format: biochemical; conditions: as determined by Assay A2
Protocol: PI3K isoforms α, β, δ and γ are purchased from Millipore (Bedford, Mass.).
Inhibitors are first diluted serially in DMSO and added to the plate wells before the addition of other reaction components. The final concentration of DMSO in the assay is 0.5%. The PI3K assays are carried out at room temperature in 20 mM MOPS, pH 6.7, 10 mM MgCl2, 5 mM DTT and CHAPS 0.03%. The reaction mixture is prepared containing 50 μM PIP2, kinase and varying concentration of inhibitors. Reactions are initiated by the addition of ATP containing 2.2 μCi [γ-^33P]ATP to a final concentration of 1000 μM. […] Reactions are incubated for 180 minutes and terminated by the addition of 100 μL of 1 M potassium phosphate pH 8.0, 30 mM EDTA quench buffer. A 100 μL aliquot of the reaction solution are then transferred to 96-well Millipore MultiScreen IP 0.45 μm PVDF filter plate (The filter plate is prewetted with 200 μL 100% ethanol, distilled water, and 1 M potassium phosphate pH 8.0, respectively). […] After drying by aspiration and blotting, the plate is air dried in an incubator at 37° C. overnight. Packard TopCount adapter (Millipore) is then attached to the plate followed with addition of 120 μL Microscint 20 scintillation cocktail (Perkin Elmer) in each well. After the plate sealing, the radioactivity of the product is determined by scintillation counting on Topcount (Perkin-Elmer). […]

[1] = test system: Pfeiffer cell line (diffuse large B cell lymphoma); test: Example B2: Pfeiffer cell proliferation assay; format: cell-based; conditions: Homo sapiens, Pfeiffer, Pfeiffer cells, [3H]-thymidine incorporation
Protocol: Pfeiffer cell line (diffuse large B cell lymphoma) are purchased from ATCC (Manassas, Va.) and maintained in the culture medium recommended (RPMI and 10% FBS). To measure the anti-proliferation activity of the compounds, the Pfeiffer cells are plated with the culture medium (2×10^3 cells/well/per 200 μl) into 96-well ultra-low binding plates (Corning, Corning, N.Y.), in the presence or absence of a concentration range of test compounds. After 3-4 days, [^3H]-thymidine (1 μCi/well) (PerkinElmer, Boston, Mass.) in PBS is then added to the cell culture for an additional 12 hours before the incorporated radioactivity is separated by filtration with water through GF/B filters (Packard Bioscience, Meridenj, Conn.) and measured by liquid scintillation counting with a TopCount (Packard Bioscience).

PI3Kδ (p110δ/p85α) = PI3Kδ (p110δ/p85α) (Homo sapiens (Human), UniProt O00329); test: Example A3: PI3Kδ scintillation proximity assay; format: biochemical; conditions: scintillation proximity assay, 20 μM ATP, 4 nM PI3Kδ; read-out: PI3Kδ SPA IC50
Summary of the method: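 p110δ/p85α (4 nM) phosphorylated 20 μM PIP2 with 20 μM ATP plus [γ-33P]ATP in MOPS pH 6.7, MgCl2, DTT, CHAPS, 0.5% DMSO, at RT. Stopped with EDTA/excess ATP, product captured on WGA SPA beads overnight and counted; IC50 from percent control activity versus log inhibitor.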

Sequence of PI3Kδ (p110δ/p85α) (O00329 whole entry): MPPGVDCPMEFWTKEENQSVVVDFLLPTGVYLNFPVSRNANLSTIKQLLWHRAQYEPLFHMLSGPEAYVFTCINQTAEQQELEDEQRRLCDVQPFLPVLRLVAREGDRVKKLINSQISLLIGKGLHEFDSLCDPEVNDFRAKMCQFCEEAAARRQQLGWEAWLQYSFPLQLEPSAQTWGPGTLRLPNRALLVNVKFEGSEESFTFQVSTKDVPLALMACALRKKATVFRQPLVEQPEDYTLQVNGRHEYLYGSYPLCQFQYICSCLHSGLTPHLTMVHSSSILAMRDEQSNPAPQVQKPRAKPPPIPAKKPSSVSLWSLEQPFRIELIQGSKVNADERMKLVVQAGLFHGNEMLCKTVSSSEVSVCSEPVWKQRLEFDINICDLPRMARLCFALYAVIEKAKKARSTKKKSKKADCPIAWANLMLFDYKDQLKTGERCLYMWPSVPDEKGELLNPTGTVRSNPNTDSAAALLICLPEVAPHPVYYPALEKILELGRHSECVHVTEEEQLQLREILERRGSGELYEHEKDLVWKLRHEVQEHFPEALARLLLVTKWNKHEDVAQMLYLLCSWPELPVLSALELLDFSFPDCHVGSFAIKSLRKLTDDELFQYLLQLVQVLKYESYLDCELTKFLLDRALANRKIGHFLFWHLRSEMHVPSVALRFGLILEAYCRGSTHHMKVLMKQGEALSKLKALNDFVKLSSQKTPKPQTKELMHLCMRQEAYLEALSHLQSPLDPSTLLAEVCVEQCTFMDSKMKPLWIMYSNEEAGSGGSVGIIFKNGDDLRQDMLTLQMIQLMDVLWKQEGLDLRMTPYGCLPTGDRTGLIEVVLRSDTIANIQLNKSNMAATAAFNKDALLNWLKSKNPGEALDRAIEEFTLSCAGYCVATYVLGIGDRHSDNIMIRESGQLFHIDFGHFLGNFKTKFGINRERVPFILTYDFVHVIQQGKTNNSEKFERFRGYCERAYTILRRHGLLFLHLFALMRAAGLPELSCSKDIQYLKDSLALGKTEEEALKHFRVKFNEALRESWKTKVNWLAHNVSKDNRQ
Sequence of PI3Kδ (p110δ/p85α) (P27986 whole entry partner): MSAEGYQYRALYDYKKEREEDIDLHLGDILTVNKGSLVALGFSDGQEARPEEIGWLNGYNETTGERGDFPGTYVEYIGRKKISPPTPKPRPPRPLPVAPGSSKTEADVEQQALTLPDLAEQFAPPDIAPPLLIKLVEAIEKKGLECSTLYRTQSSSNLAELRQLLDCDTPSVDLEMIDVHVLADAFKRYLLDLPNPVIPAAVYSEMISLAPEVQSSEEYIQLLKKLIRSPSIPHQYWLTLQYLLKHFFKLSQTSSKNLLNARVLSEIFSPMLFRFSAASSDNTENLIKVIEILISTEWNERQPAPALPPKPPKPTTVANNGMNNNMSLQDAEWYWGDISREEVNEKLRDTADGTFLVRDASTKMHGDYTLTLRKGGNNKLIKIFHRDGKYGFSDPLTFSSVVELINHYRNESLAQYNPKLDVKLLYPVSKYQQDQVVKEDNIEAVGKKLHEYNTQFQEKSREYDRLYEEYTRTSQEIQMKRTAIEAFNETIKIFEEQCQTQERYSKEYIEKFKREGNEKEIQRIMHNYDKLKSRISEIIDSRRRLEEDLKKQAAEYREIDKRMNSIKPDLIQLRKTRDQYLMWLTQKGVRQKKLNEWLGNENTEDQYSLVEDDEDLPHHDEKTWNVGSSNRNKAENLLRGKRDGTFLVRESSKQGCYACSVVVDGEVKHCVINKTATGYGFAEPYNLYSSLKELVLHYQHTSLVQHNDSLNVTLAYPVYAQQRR
Sequence of PI3K isoform δ (O00329 whole entry, canonical isoform): as the sequence (O00329 whole entry) above
Sequence of PI3K isoform δ (P27986 whole entry partner, canonical isoform): as the sequence (P27986 whole entry partner) above

Compound: CCOc1c(C(C)n2nc(C)c3c(N)ncnc32)cc(Cl)c(F)c1C1CN(CC(C)(C)O)C1 (racemic) [Example 140, 1-(3-{3-[1-(4-Amino-3-methyl-1H-pyrazolo[3,4-d]pyrimidin-1-yl)ethyl]-5-chloro-2-ethoxy-6-fluorophenyl}azetidin-1-yl)-2-methylpropan-2-ol]
IC50 [1]: < 10 nM | IC50 (PI3Kδ (p110δ/p85α)): < 10 nM

Compound: CCOc1c(C(C)n2nc(C(F)F)c3c(N)ncnc32)cc(Cl)c(F)c1C1CN(C[C@H](C)O)C1 (stereo partly drawn) [Example 154, (2S)-1-[3-(3-{1-[4-Amino-3-(difluoromethyl)-1H-pyrazolo[3,4-d]pyrimidin-1-yl]ethyl}-5-chloro-2-ethoxy-6-fluorophenyl)azetidin-1-yl]propan-2-ol]
IC50 [1]: < 10 nM | IC50 (PI3Kδ (p110δ/p85α)): < 10 nM

Compound: CCOc1c(C(C)n2nc(C)c3c(N)ncnc32)cc(Cl)c(F)c1C1CN(C[C@@H](C)O)C1 (stereo partly drawn) [Example 142, (2R)-1-(3-{3-[1-(4-Amino-3-methyl-1H-pyrazolo[3,4-d]pyrimidin-1-yl)ethyl]-5-chloro-2-ethoxy-6-fluorophenyl}azetidin-1-yl)propan-2-ol]
IC50 [1]: < 10 nM | IC50 (PI3Kδ (p110δ/p85α)): < 10 nM

Now from value to molecule:

IC50 (PI3K isoform δ): > 500 nM
Compound: COc1c([C@@H](C)n2nc(C)c3c(N)ncnc32)cc(Cl)c(C#N)c1C1CN(C[C@H](C)O)C1 [Example 361, 4-((R)-1-(4-amino-3-methyl-1H-pyrazolo[3,4-d]pyrimidin-1-yl)ethyl)-6-chloro-2-(1-((S)-2-hydroxypropyl)azetidin-3-yl)-3-methoxybenzonitrile]

IC50 [1]: < 10 nM | IC50 (PI3Kδ (p110δ/p85α)): < 10 nM
Compound: CCOc1c(C(C)n2nc(C)c3c(N)ncnc32)cc(Cl)c(F)c1C1CNC(=O)O1 (single isomer, unassigned) [Example 357, 5-{3-[1-(4-amino-3-methyl-1H-pyrazolo[3,4-d]pyrimidin-1-yl)ethyl]-5-chloro-2-ethoxy-6-fluorophenyl}-1,3-oxazolidin-2-one]

IC50 [1]: < 10 nM | IC50 (PI3Kδ (p110δ/p85α)): < 10 nM
Compound: COc1c(C(C)n2nc(C)c3c(N)ncnc32)cc(Cl)c(C#N)c1C1CN(C[C@@H](C)O)C1 (stereo partly drawn) [Example 270, 4-[1-(4-Amino-3-methyl-1H-pyrazolo[3,4-d]pyrimidin-1-yl)ethyl]-6-chloro-2-{1-[(2R)-2-hydroxypropyl]azetidin-3-yl}-3-methoxybenzonitrile]

IC50 [1]: 10 to 50 nM | IC50 (PI3Kδ (p110δ/p85α)): < 10 nM
Compound: COc1c(C(C)n2nc(C)c3c(N)ncnc32)cc(Cl)c(C)c1C1CCN(C)CC1 (racemic) [Example 163, 1-{1-[5-Chloro-2-methoxy-4-methyl-3-(1-methylpiperidin-4-yl)phenyl]ethyl}-3-methyl-1H-pyrazolo[3,4-d]pyrimidin-4-amine]
